*1 amine or outer side, *2 acyl side, *3 side chain or, on linkers, in order; H or OH if unused. Where a SMILES comes first, the peptide text is derived from it. Bridges are numbered along the chain shown (N, C = ends). Side-chain parts run from the residue outwards. [ ]: non-standard residue; d: D form. The star is where a group is joined. C20 diacid = O=C(O)CCCCCCCCCCCCCCCCCCC(=O)*; C18 diacid = O=C(O)CCCCCCCCCCCCCCCCC(=O)*; γGlu = O=C(O)[C@H](CCC(=O)[*:2])N[*:1]; AEEA = NCCOCCOCC(=O)O; Aib = CC(C)(N)C(=O)O
Experiments:
GLP-1R = target: T1, GLP-1R (Homo sapiens, UniProt P43220); assay: GLP-1R agonist activity test in vitro (cAMP assay); assay type: cell-based; conditions: HEK293 host cell
T1 construct: host or cells: HEK293
T1 sequence (P43220 24-463): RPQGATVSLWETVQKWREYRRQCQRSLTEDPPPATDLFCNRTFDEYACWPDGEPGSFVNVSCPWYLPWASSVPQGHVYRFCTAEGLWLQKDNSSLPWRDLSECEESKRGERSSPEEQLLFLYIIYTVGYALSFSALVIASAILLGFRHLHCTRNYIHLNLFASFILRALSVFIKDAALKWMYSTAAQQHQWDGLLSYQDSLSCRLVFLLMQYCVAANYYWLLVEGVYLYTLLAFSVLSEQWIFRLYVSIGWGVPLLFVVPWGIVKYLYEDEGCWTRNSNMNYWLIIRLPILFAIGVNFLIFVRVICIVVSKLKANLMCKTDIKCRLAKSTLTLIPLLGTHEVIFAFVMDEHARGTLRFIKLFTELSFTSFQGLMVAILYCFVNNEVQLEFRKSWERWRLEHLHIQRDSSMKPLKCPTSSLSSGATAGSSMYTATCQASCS
Protocol: (§1) The cell strains were constructed by Shanghai WuXi AppTec.
(§2) The test compound was serially diluted 4-fold with 10 points. The initial concentration was 30 μM, and the dilution was completed with Bravo.
(§3) 1) 100 nL of the compound was transferred to OptiPlate-384 plate using Echo.
(§4) 7) The GLP-1R/GIPR cell concentration was diluted to 2.0*10^5/mL with the experimental buffer.
(§5) 8) […] of the diluted cell suspension was transferred into the OptiPlate-384 plate.
(§6) 9) The diluted cell suspension was incubated at room temperature for 30 minutes.
(§7) 2) 10 μL of cAMP detection reagent was added.
(§8) 3) The OptiPlate-384 plate was covered with TopSeal-A film and incubated at room temperature for 60 minutes.
(§9) TopSeal-A was removed and read in EnVision.

GIPR = target: T2, GIPR (Homo sapiens, UniProt P48546); assay: GIPR agonist activity test in vitro (cAMP assay); assay type: cell-based; conditions: CHO host cell
T2 construct: host or cells: CHO
T2 sequence (P48546 22-466): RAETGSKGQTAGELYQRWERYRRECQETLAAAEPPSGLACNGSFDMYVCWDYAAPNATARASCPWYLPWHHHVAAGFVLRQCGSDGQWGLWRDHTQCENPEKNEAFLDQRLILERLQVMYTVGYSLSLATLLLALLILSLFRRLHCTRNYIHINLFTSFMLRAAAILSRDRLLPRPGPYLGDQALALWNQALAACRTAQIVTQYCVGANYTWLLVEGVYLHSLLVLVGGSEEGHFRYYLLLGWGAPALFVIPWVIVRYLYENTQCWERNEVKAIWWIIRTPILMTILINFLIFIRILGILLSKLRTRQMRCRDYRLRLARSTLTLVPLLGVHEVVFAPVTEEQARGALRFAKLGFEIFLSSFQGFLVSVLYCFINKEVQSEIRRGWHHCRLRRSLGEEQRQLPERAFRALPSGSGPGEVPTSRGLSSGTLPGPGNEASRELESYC
Protocol: as §1, §2, §3, §4, §5, §6, §7, §8, §9

[1] = GLP-IR Agonist Activity EC50 (−) 1% HSA, without 1% HSA
[2] = GIPR Agonist Activity EC50 (−) 1% HSA, without 1% HSA

SMILES | EC50 (GLP-1R; GLP-IR Agonist Activity EC50 (+) 1% HSA, with 1% HSA) | EC50 (GLP-1R; [1]) | EC50 (GIPR; GIPR Agonist Activity EC50 (+) 1% HSA, with 1% HSA) | EC50 (GIPR; [2])
CC[C@H](C)[C@H](NC(=O)[C@@H]1CCCCNC(=O)CC[C@H](NC(=O)[C@@H](NC(=O)[C@H](CO)NC(=O)[C@H](Cc2ccc(O)cc2)NC(=O)[C@H](CC(=O)O)NC(=O)[C@H](CO)NC(=O)[C@@H](NC(=O)[C@H](Cc2ccccc2)NC(=O)[C@@H](NC(=O)CNC(=O)[C@H](CCC(=O)O)NC(=O)C(C)(C)NC(=O)[C@@H](N)Cc2ccc(O)cc2)[C@@H](C)O)[C@@H](C)O)[C@@H](C)CC)C(=O)N[C@@H](CC(C)C)C(=O)N[C@@H](CC(=O)O)C(=O)N1)C(=O)N[C@@H](C)C(=O)N[C@@H](CCC(N)=O)C(=O)N[C@@H](CCCCNC(=O)COCCOCCNC(=O)COCCOCCNC(=O)CC[C@H](NC(=O)CCCCCCCCCCCCCCCCCCC(=O)O)C(=O)O)C(=O)N[C@@H](C)C(=O)N[C@@H](Cc1ccccc1)C(=O)N[C@H](C(=O)N[C@@H](CCC(N)=O)C(=O)N[C@@H](Cc1c[nH]c2ccccc12)C(=O)N[C@@H](CC(C)C)C(=O)N[C@H](C(=O)N[C@@H](C)C(=O)NCC(=O)NCC(=O)N1CCC[C@H]1C(=O)N[C@@H](CO)C(=O)N[C@@H](CO)C(=O)NCC(=O)N[C@@H](C)C(=O)N1CCC[C@H]1C(=O)N1CCC[C@H]1C(=O)N1CCC[C@H]1C(=O)N[C@@H](CO)C(N)=O)[C@@H](C)CC)C(C)C [WX-010] (H-Y[Aib]EGTFTSDYSIELDKIAQK([AEEA-AEEA-γGlu-C20 diacid])AFVQWLIAGGPSSGAPPPS-NH2; lactam 13-16) | 34 nM | 0.0345 nM | 443 nM | 11.9 nM
CC[C@H](C)[C@H](NC(=O)[C@H](CC(C)C)NC(=O)[C@H](Cc1c[nH]c2ccccc12)NC(=O)[C@@H]1CCC(=O)NCCCC[C@H](NC(=O)[C@H](CCC(N)=O)NC(=O)[C@H](C)NC(=O)[C@H](CCCCNC(=O)COCCOCCNC(=O)COCCOCCNC(=O)CC[C@H](NC(=O)CC[C@H](NC(=O)CCCCCCCCCCCCCCCCC(=O)O)C(=O)O)C(=O)O)NC(=O)[C@H](CCCCN)NC(=O)[C@H](CC(=O)O)NC(=O)[C@H](CC(C)C)NC(=O)C(C)(C)NC(=O)[C@@H](NC(=O)[C@H](CO)NC(=O)[C@H](Cc2ccc(O)cc2)NC(=O)[C@H](CC(=O)O)NC(=O)[C@H](CO)NC(=O)[C@@H](NC(=O)[C@H](Cc2ccccc2)NC(=O)[C@@H](NC(=O)CNC(=O)[C@H](CCC(=O)O)NC(=O)C(C)(C)NC(=O)[C@@H](N)Cc2ccc(O)cc2)[C@@H](C)O)[C@@H](C)O)[C@@H](C)CC)C(=O)N[C@@H](C)C(=O)N[C@@H](Cc2ccccc2)C(=O)N[C@@H](C(C)C)C(=O)N1)C(=O)N[C@@H](C)C(=O)NCC(=O)NCC(=O)N1CCC[C@H]1C(=O)N[C@@H](CO)C(=O)N[C@@H](CO)C(=O)NCC(=O)N[C@@H](C)C(=O)N1CCC[C@H]1C(=O)N1CCC[C@H]1C(=O)N1CCC[C@H]1C(=O)N[C@@H](CO)C(N)=O [WX-003] (H-Y[Aib]EGTFTSDYSI[Aib]LDKK([AEEA-AEEA-γGlu-γGlu-C18 diacid])AQKAFVEWLIAGGPSSGAPPPS-NH2; lactam 20-24) | – | 0.09 nM | – | 0.3 nM
CC[C@H](C)[C@H](NC(=O)[C@H](CO)NC(=O)[C@H](Cc1ccc(O)cc1)NC(=O)[C@H](CC(=O)O)NC(=O)[C@H](CO)NC(=O)[C@@H](NC(=O)[C@H](Cc1ccccc1)NC(=O)[C@@H](NC(=O)CNC(=O)[C@H](CCC(=O)O)NC(=O)C(C)(C)NC(=O)[C@@H](N)Cc1ccc(O)cc1)[C@@H](C)O)[C@@H](C)O)C(=O)NC(C)(C)C(=O)N[C@@H](CC(C)C)C(=O)N[C@@H](CC(=O)O)C(=O)N[C@@H](CCCCN)C(=O)N[C@@H](CCCCNC(=O)COCCOCCNC(=O)COCCOCCNC(=O)CC[C@H](NC(=O)CCCCCCCCCCCCCCCCCCC(=O)O)C(=O)O)C(=O)N[C@@H](C)C(=O)N[C@@H](CCC(N)=O)C(=O)N[C@H]1CCCCNC(=O)CC[C@@H](C(=O)N[C@@H](Cc2c[nH]c3ccccc23)C(=O)N[C@@H](CC(C)C)C(=O)N[C@@H](CC(C)C)C(=O)N[C@@H](C)C(=O)NCC(=O)NCC(=O)N2CCC[C@H]2C(=O)N[C@@H](CO)C(=O)N[C@@H](CO)C(=O)NCC(=O)N[C@@H](C)C(=O)N2CCC[C@H]2C(=O)N2CCC[C@H]2C(=O)N2CCC[C@H]2C(=O)N[C@@H](CO)C(N)=O)NC(=O)[C@H](C(C)C)NC(=O)[C@H](Cc2ccccc2)NC(=O)[C@H](C)NC1=O [WX-007] (H-Y[Aib]EGTFTSDYSI[Aib]LDKK([AEEA-AEEA-γGlu-C20 diacid])AQKAFVEWLLAGGPSSGAPPPS-NH2; lactam 20-24) | – | 0.14 nM | – | 0.13 nM
CC[C@H](C)[C@H](NC(=O)[C@H](CC(C)C)NC(=O)[C@H](Cc1c[nH]c2ccccc12)NC(=O)[C@H](CCCCNC(=O)COCCOCCNC(=O)COCCOCCNC(=O)CC[C@H](NC(=O)CCCCCCCCCCCCCCCCCCC(=O)O)C(=O)O)NC(=O)[C@@H](NC(=O)[C@H](Cc1ccccc1)NC(=O)[C@H](C)NC(=O)[C@@H]1CCCCNC(=O)CC[C@H](NC(=O)[C@H](CCCCN)NC(=O)[C@H](CC(=O)O)NC(=O)[C@H](CC(C)C)NC(=O)C(C)(C)NC(=O)[C@@H](NC(=O)[C@H](CO)NC(=O)[C@H](Cc2ccc(O)cc2)NC(=O)[C@H](CC(=O)O)NC(=O)[C@H](CO)NC(=O)[C@@H](NC(=O)[C@H](Cc2ccccc2)NC(=O)[C@@H](NC(=O)CNC(=O)[C@H](CCC(=O)O)NC(=O)C(C)(C)NC(=O)[C@@H](N)Cc2ccc(O)cc2)[C@@H](C)O)[C@@H](C)O)[C@@H](C)CC)C(=O)N[C@@H](C)C(=O)N[C@@H](CCC(N)=O)C(=O)N1)C(C)C)C(=O)N[C@@H](C)C(=O)NCC(=O)NCC(=O)N1CCC[C@H]1C(=O)N[C@@H](CO)C(=O)N[C@@H](CO)C(=O)NCC(=O)N[C@@H](C)C(=O)N1CCC[C@H]1C(=O)N1CCC[C@H]1C(=O)N1CCC[C@H]1C(=O)N[C@@H](CO)C(N)=O [WX-008] (H-Y[Aib]EGTFTSDYSI[Aib]LDKEAQKAFVK([AEEA-AEEA-γGlu-C20 diacid])WLIAGGPSSGAPPPS-NH2; lactam 17-20) | – | 0.08 nM | – | 0.32 nM

From patent US20240067702A1, “LACTAM-MODIFIED P[…]” (DONGBAO PURPLE STAR (HANGZHOU) BIOPHARMACEUTICAL CO., LTD., priority 2020, published 2024)
